In patent US6337317B1, “Antimicrobial peptides and methods of use thereof” (priority 2000, dated 2002):
Where a SMILES comes first, the peptide text is derived from it.

Tests used:
Assay type in all cases: cell-based
[1] = tested on: Pseudomonas aeruginosa PAO1
Procedure: (§1) The biological activity of the peptides can be determined by standard methods known to those of skill in the art, such as a “minimal inhibitory concentration” (MIC) assay (see Wu and Hancock (1999) J. Biol Chem. 274:29-35 and Examples section). A MIC assay allows the determination of the lowest concentration of peptide that inhibits the multiplication and growth of mircoorganisms. Changes in the microorganism population are assessed by measuring the optical density (OD) of the population in broth or medium. Peptide MIC's can be determined for a variety of micoorganisms under a variety of conditions. Another assay for the biological activity of the peptides is a “fractional inhibitory concentration” (FIC) assay. This assay is especially useful for determining synergistic effects between the peptides of the invention, and between invention peptides and other compounds such as known antibiotics. A FIC assay employs the strategy of a MIC assay with additional variable(s), e.g., known antibiotics. One type of FIC assay is performed in a microwell plate containing microorganisms in broth. Peptides, in a range of dilutions, is added to each well following a patter of one dimension of the microwell plate, and antibiotics, in the other dimension. The FIC is calculated by looking at the impact of an antibiotic on the MIC of the peptide and the reciprocal relationship. […] Preferably, an FIC of less than 0.5 is obtained for synergism. As used herein, FIC can be determined as follows:
(§2) The bacterial strains used for antimicrobial activity assays included E. coli UB1005 (F^−, nalA37, metB1) and its outer membrane deficient mutant DC2 (16), E. coli KF130 (gyrA) (Hooper et al. (1987) Am. J. Med. 82:(Suppl. 4A),12-20), wild tppe strains of S. typhimurium 14028s (Fields et al. (1989) Science 243:1059-1062), S. aureus ATCC25923, S. aureus SAP0017 and R147. Also included was a clinical isolate of S. epidermidis were obtained from Dr. D. Speert, Department of Medicine, University of British Columbia, and P. aeruginosa PAO1 (Hancock and Carey (1979) J. Bacteriol. 140:902-910), H374 and H744 (Poole et al. (1993) J. Bacterial.175:7363-7372.) and E. faecalis ATCC 29212. Antifungal activity was tested using a clinical lab isolate of Candida albicans. All the strains were grown in Mueller Hinton (MH) broth (Difco Laboratories, Detroit, Mich.) at 37° C. unless otherwise indicated. The lipopolysaccharides (LPS) of E. coli UB1005 and P. aeruginosa H103 used for the dansyl-polymyxin B replacement assay were isolated as described by Moore et al. ((1986) Antimicrobial. Agents Chemother. 29:496-500). Polymyxin B, 1-N-phenylnapthylamine (NPN), carbonyl cyanide-m-chlorophenyl hydrazone (CCCP), Re LPS from S. Minnesota R595 (Re mutant) and LPS from E. coli 0111 :B4 were purchased from Sigma Chemicals Co. (St. Louis, Mo.). Dansyl polymyxin B was synthesized as described previously (Moore et al. (1986) Antimicrobial. Agents Chemother. 29:496-500). The lipids 1-pamitoyl-2-oleoyl-sn-glycero-3-phosphocholine (POPC), 1-palmitoyl-2-oleoyl-sn-glycero-3-phosphoglycerol (POPG), 1-palmitoyl-2-oleoyl-sn-glycero-3-phosphoethanolamine (POPE) and phosphatidylglycerol from egg yolk (egg-PG) were purchased from Avanti Polar Lipids Inc. (Alabaster, Ala.). The fluorescent dye 3,3-dipropylthiacarbocyanine (diSC35) was purchased from Molecular Probes (Eugene, Oreg.).
(§3) MIC Assay p The minimum inhibitory concentrations of (MIC) of several invention peptides were determined using methods described elsewhere (Wu and Hancock, (1999) J. Biol Chem. 274:29-35). Cells were grown overnight at 37EC in LB-S (Luria broth without any salt supplement) and diluted one in 10,000 in the same medium to give concentrations of about 10^4 to 10^5 CFU/ml. The broth dilutions were set up in a 96-well microtiter plate by putting 200 μl of LB-S containing the initial concentration of antibiotic or compound in column 1 and 100 Φl of the same medium in columns 2-12. […]

Escherichia coli UB1005 = tested on: Escherichia coli UB1005
Procedure: as §1, §2, §3

[2] = tested on: Staphylococcus epidermidis; details: Staphylococcus epidermidis clinical isolate
Procedure: as §1, §2, §3

Candida albicans = Candida albicans clinical lab isolate
Procedure: as §1, §2, §3

Enterococcus facaelis = tested on: Enterococcus facaelis
Procedure: as §1, §2, §3

## CC(C)[C@@H]1NC(=O)[C@H](CCCNC(=N)N)NC(=O)[C@H](Cc2ccccc2)NC(=O)[C@@H](NC(=O)[C@H](Cc2c[nH]c3ccccc23)NC(=O)[C@H](CCCNC(=N)N)NC(=O)[C@@H](N)CCCNC(=N)N)CSSC[C@@H](C(=O)N[C@@H](CCCNC(=N)N)C(N)=O)NC(=O)[C@H](CCCCN)NC(=O)[C@H](CCCNC(=N)N)NC(=O)[C@H](Cc2ccc(O)cc2)NC(=O)[C@@H]2CSSC[C@H](NC1=O)C(=O)N[C@@H](Cc1ccc(O)cc1)C(=O)N[C@@H](CCCNC(=N)N)C(=O)NCC(=O)N[C@@H](Cc1ccccc1)C(=O)N2 [Polyphemusin I] (HELM PEPTIDE1{R.R.W.C.F.R.V.C.Y.R.G.F.C.Y.R.K.C.R.[am]}$PEPTIDE1,PEPTIDE1,4:R3-17:R3|PEPTIDE1,PEPTIDE1,8:R3-13:R3$$$V2.0; N-terminus and C-terminus assumed)
[1]
  MIC: 0.25 µg/mL
Escherichia coli UB1005
  MIC: 0.125 µg/mL
[2]
  MIC: 0.25 µg/mL
Candida albicans
  MIC: 1 µg/mL
Enterococcus facaelis
  MIC: 0.25 µg/mL
